Assay results reported in ChEMBL document CHEMBL3272028, “Some substituted naphthazarins as potential anticancer agents” (1976).
Activity calls are given as the source filed them. No cut-off for these calls is given here.

Legend:
L1210 = experiment: Antitumor activity against mouse L1210 cells allografted in mouse; format: functional, cell-based
P388 [1] = experiment: Antitumor activity against mouse P388 cells allografted in mouse; format: functional, cell-based
[2] = Growth inhibition of human 9KB cells at 1.8 ug/ml relative to control; format: functional; settings: read-out: GI
P388 [3] = experiment: Antitumor activity against mouse P388 cells allografted in mouse at 400 mg/kg relative to control; format: functional
P388 [4] = experiment: Antitumor activity against mouse P388 cells allografted in mouse at 50 mg/kg relative to control; format: functional

Structure (SMILES) | Activity (L1210) | Activity (P388 [1]) | inhibition of growth at 1.8 µg/mL [2] [%] | T/C (P388 [3]) | T/C (P388 [4])
CC(=O)Oc1ccc(OC(C)=O)c2c1C(=O)C=CC2=O | inactive | inactive | 50 |  | 
CC(=O)Oc1ccc(OC(C)=O)c2c1CC(C)=C(C)C2 | inactive |  |  | 126 | 
CC1=C(C)C(=O)c2c(OC(=O)c3ccccc3)ccc(OC(=O)c3ccccc3)c2C1=O | inactive |  |  |  | 128
